Key:
Experiment in all cases: biochemical
[1] = molecular target: T1, EeAChE (AChE from Electrophorus electricus) (Electrophorus electricus, UniProt O42275); assay type: biochemical; conditions: modified Ellman's method, 37 °C, samples 1 to 100 µM, average ± standard deviation of three experiments
T1 construct: purchased Sigma-Aldrich (São Paulo, Brazil)
Procedure: (§1) In order to determine the anticholinesterase activity, we used Ellman’s method modified for a 96-wells plate. The velocities of substrate hydrolysis by AChE and BChE as function of sample concentration were evaluated for EeAChE and EqBChE. AChE, BChE and Ellman’s reagent (DTNB) were prepared in phosphate buffer (100 mM, pH 7.4). Acetylthiocholine iodide (ATCI), and butyrylthiocholine iodide (BTCI) were prepared in distilled water. Stock samples (100 mM) were prepared in dimethyl sulphoxide (DMSO) and appropriately diluted in distilled water to the desired concentrations immediately before use. All solutions were kept on ice during the experiment. All experiments were performed at 37 ± 1 °C.
(§2) The mixture was incubated for 10 min. Then, ATCI (0.5 mM) or BTCI (1.0 mM) was added to all wells and the plate was read immediately for 5 min in a spectrophotometer (Spectramax 340PC, Molecular Device®). The spontaneous and sample (100 µM) induced hydrolysis of the substrate were evaluated by replacing enzyme for buffer. […] The solvent (DMSO) was evaluated at the highest concentration (0.2%) used in the experiment. All concentrations refer to final concentrations. The samples were tested in at least 5 concentrations. […] The values of absorbance/min were calculated by the software Softmax Pro 6.4®. Inhibition values were calculated through non-linear regression with the software GraphPadPrism 5 (GraphPad software®, San Diego, CA, USA). […] EeAChE (EC.3.1.1.7), EqBChE (EC3.1.1.8), ATCI, BTCI and DTNB were purchased from Sigma-Aldrich (São Paulo, Brazil).

[2] = molecular target: T2, EqBChE (butyrylcholinesterase from equine serum) (Equus caballus, UniProt P81908); assay type: biochemical; conditions: modified Ellman's method, 37 °C, samples 1 to 100 µM, average ± standard deviation of three experiments
T2 construct: butyrylcholinesterase from equine serum (EqBChE); purchased Sigma-Aldrich (São Paulo, Brazil); host or cells: equine serum
Procedure: as §1, §2

EeAChE = molecular target: T3, EeAChE (Electrophorus electricus, UniProt O42275); conditions: EeAChE 33 nM, ACh 5 mM, final concentration of the inhibitor 10 mM, 25 °C, triplicate; read-out: AChE inhibition (NMR test)
T3 construct: purchased Sigma-Aldrich (São Paulo, Brazil)
T3 sequence (O42275 24-633): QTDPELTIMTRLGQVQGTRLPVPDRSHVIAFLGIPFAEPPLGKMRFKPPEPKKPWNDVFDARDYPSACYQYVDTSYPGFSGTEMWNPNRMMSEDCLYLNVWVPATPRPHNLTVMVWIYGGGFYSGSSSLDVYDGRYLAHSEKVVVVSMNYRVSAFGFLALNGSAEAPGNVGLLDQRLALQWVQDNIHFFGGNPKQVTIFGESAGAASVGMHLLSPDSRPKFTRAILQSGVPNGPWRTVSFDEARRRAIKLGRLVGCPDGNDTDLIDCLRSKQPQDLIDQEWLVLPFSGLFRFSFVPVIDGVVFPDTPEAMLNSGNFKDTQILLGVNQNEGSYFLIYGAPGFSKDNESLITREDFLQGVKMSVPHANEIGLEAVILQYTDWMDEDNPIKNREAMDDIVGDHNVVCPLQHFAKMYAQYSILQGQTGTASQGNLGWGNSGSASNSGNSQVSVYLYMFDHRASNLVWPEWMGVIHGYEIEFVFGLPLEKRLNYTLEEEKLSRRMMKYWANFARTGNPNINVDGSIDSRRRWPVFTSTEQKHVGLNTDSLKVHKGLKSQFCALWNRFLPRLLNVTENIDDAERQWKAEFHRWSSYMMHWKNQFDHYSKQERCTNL
Procedure: This sample was immediately inserted in the magnet for locking and shimming, allowing for the observation of the first ^1H spectra exactly 5 min after the addition of ACh. The next ^1H spectra were acquired at every 5 min with a single scan over 75 min. For testing the new compound, the same procedure was performed, including the addition of 5 μL of the potential EeAChE inhibitor (final concentration of the inhibitor in the NMR tube = 10 mM) before the addition of ACh. […] The values generated from the integration of the signals of ACh (consumed during the reaction) and Ac (produced during the reaction) are compared between each other and to the values of Ac produced in the presence and in the absence of the inhibitor. This enables the calculation of the percentages of inhibition, as described before [32]. All analyses were performed in triplicate.

T1 sequence (O42275 24-633): as above
T2 sequence (P81908 whole entry): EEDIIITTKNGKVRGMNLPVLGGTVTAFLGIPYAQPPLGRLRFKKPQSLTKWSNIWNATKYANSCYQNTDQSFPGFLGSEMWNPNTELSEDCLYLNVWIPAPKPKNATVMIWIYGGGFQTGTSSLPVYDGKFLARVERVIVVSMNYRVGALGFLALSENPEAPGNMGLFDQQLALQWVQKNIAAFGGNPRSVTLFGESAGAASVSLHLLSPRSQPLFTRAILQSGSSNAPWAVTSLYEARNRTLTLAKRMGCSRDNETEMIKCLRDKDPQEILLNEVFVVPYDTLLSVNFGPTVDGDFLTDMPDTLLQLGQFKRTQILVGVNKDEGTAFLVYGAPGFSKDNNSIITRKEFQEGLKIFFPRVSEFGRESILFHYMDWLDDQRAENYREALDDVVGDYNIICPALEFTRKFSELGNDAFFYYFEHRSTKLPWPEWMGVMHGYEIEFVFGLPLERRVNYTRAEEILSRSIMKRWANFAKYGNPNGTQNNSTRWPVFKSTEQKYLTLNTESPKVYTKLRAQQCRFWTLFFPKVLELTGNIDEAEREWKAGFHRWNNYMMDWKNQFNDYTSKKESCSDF

## CC1(C)CC(=O)c2cc3cc4c(cc3nc2C1)OCO4 [Compound 3, 7,8-Dihydro-7,7-dimethyl-1,3-dioxolo[4,5-b]acridin-9(6h)-one]
[1]
  IC50: 51.5 ± 2.47 µM

## O=C(O)c1cc2cc3c(cc2[nH]c1=O)OCO3 [Compound 5, Acid 5,6-Diidro-6-oxo-1,3-dioxolo[4,6g] quiniline-7-carboxilic]
[1]
  IC50: 14.2 ± 1.15 µM

## O=c1[nH]c(=O)c2cc3cc4c(cc3nc2[nH]1)OCO4 [Compound 6, 1,3-Dioxolo [4,5-g] pirimido [4,5-b] quinoline-7,9 (6H,8H)-dione]
[1]
  IC50: 32.1 ± 3.53 µM

## COC(=O)c1cc2cc3c(cc2nc1C)OCO3 [Compound 4, Methyl 6-Methyl-[1,3]dioxolo[4,5-g]quinone-7-carboxilate]
[1]
  IC50: > 100 µM
  IC50 EeAChE: not able to inhibit
[2]
  IC50 EqBChE: not able to inhibit

## CC1(C)CC(=NNC(=N)N)c2cc3cc4c(cc3nc2C1)OCO4 [Compound 8, Guanylhydrazone of 7,7-Dimethyl-7,8-dihydro-[1,3]dioxolo[4,5-b]acridin-9(6h)-one]
EeAChE
  inhibition at 10000 µM: 73.9 ± 6.26%
[1]
  IC50: 8.5 ± 0.39 µM
[2]
  IC50: 15.2 ± 0.75 µM

## CCOC(=O)c1cc2cc3c(cc2[nH]c1=O)OCO3 [Compound 7, Ethyl 5,6-Dehidro-6-oxo-[1,3] dioxolano [4,5-g] quinoline-7-carboxilate]
[1]
  IC50: 62.8 ± 2.02 µM

Source: paper PMC6720848, “Synthesis of New Quinoline-Piperonal Hybrids as Potential Drugs against Alzheimer’s Disease” (International Journal of Molecular Sciences, 2019)
